The target in one series is Cholinesterase (Homo sapiens, UniProt P06276).
The next series addresses T1, Acetylcholinesterase (Rattus norvegicus, UniProt P37136).
T1 sequence (P37136 whole entry): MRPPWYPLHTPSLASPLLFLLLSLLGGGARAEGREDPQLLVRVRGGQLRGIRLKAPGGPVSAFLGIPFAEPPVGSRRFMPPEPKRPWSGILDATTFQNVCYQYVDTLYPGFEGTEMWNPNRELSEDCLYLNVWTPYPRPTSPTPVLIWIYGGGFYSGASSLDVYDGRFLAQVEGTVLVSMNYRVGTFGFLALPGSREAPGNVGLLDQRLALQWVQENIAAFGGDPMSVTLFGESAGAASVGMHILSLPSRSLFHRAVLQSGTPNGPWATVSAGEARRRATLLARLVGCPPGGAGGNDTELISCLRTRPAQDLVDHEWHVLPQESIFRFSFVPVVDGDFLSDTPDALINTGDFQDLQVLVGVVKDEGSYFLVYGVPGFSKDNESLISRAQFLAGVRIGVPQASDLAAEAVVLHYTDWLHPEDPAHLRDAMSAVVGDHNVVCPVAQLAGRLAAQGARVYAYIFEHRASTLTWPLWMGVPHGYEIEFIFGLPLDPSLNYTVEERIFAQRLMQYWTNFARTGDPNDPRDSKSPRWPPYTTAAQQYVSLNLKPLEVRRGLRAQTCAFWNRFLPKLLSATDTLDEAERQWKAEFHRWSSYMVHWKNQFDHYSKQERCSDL
Set-up: species or system Wistar.

A further series deals with Hippocampus. Kind of series: Reduction of S100B secretion in Wistar rat hippocampus at 0.03 to 0.3 uM after 1 hr by ELISA. Type of series: functional.
The species entered for series [1] is Rattus norvegicus. Kind of series: Toxicity in Wistar rat hippocampus assessed as LDH release at 0.03 uM relative to control. In kind it is organism-based. The settings on record: in vivo.
The species entered for series [2] is Rattus norvegicus. Kind of series: Toxicity in Wistar rat hippocampus assessed as LDH release at 0.1 uM relative to control. In kind it is organism-based. The settings on record: in vivo.
For series [3], the species on record is Rattus norvegicus. Kind of series: Toxicity in Wistar rat hippocampus assessed as LDH release at 0.3 uM relative to control. In kind it is organism-based. Particulars: in vivo.

Active and inactive are the calls of the source. The calls are words filed in the database; no cut-off is given here.

Sequence of Cholinesterase (P06276 whole entry): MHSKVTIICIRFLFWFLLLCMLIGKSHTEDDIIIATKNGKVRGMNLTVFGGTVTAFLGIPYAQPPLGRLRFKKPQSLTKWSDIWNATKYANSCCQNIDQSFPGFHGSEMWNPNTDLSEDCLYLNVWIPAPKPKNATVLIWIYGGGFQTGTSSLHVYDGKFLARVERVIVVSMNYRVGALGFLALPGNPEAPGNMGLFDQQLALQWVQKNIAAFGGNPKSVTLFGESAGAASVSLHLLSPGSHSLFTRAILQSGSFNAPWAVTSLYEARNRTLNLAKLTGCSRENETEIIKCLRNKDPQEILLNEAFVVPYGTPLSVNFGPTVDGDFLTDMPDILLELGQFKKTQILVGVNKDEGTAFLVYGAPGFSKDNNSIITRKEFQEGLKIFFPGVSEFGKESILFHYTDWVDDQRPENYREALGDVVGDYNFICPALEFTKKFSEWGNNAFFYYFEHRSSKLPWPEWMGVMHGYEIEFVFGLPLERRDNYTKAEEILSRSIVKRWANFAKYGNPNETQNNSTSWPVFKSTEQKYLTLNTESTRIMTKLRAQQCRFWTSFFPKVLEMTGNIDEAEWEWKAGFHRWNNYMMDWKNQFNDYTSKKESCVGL
Description for Acetylcholinesterase: Inhibition of Wistar rat brain AChE using acetylthiochloline iodide as substrate after 30 mins by Ellman's method

In the case of `CN1c2ccccc2C(NCCCCCCC(=O)NCCCNc2c3c(nc4ccccc24)CCCC3)c2ccc(Cl)cc2S1(=O)=O` (stereo unspecified), the IC50 on Cholinesterase was found to be 11.6 nM; against Acetylcholinesterase, 52.2 nM.
On the same counts, the results for `CN1c2ccccc2C(NCCCCCCC(=O)NCCCCCNc2c3c(nc4cc(Cl)ccc24)CCCC3)c2ccc(Cl)cc2S1(=O)=O` (stereo unspecified) are 30.4 nM and 28.3 nM.
As for `CN1c2ccccc2C(NCCCCCCC(=O)NCCCCCCCCNc2c3c(nc4ccccc24)CCCC3)c2ccc(Cl)cc2S1(=O)=O` (stereo unspecified), the figures for the IC50 against Cholinesterase and on Acetylcholinesterase were 4.12 nM and 87.5 nM, respectively.
On the same counts, the results for `CN1c2ccccc2C(NCCCCCCC(=O)NCCCCCCNc2c3c(nc4ccccc24)CCCC3)c2ccc(Cl)cc2S1(=O)=O` (stereo unspecified) are 3.79 nM and 116 nM.
Take `CN1c2ccccc2C(NCCCCCCC(=O)NCCNc2c3c(nc4cc(Cl)ccc24)CCCC3)c2ccc(Cl)cc2S1(=O)=O` (stereo unspecified): the IC50 at Cholinesterase was found to be 47.3 nM; against Acetylcholinesterase, 8.01 nM.
For `CN1c2ccccc2C(NCCCCCCC(=O)NCCCCCCCNc2c3c(nc4ccccc24)CCCC3)c2ccc(Cl)cc2S1(=O)=O` (stereo unspecified), the IC50 was determined as 6.4 nM on Cholinesterase and 65 nM against Acetylcholinesterase.
On the same counts, the results for `CN1c2ccccc2C(NCCCCCCC(=O)NCCCCNc2c3c(nc4cc(Cl)ccc24)CCCC3)c2ccc(Cl)cc2S1(=O)=O` (stereo unspecified) are 48.1 nM and 36.5 nM.
In the case of `CN1c2ccccc2C(NCCCCCCC(=O)NCCCCCCCNc2c3c(nc4cc(Cl)ccc24)CCCC3)c2ccc(Cl)cc2S1(=O)=O` (stereo unspecified), the IC50 against Cholinesterase amounted to 53.8 nM; against Acetylcholinesterase, 132 nM.
Consider `CN1c2ccccc2C(NCCCCCCC(=O)NCCCCNc2c3c(nc4ccccc24)CCCC3)c2ccc(Cl)cc2S1(=O)=O` (stereo unspecified), for which the IC50 against Cholinesterase came to 3.59 nM; on Acetylcholinesterase, 156 nM. In the series on Hippocampus, the result was Active. Besides, the Activity is reported as 72.7% in the series filed under Rattus norvegicus [1] and 74.9% in the series filed under Rattus norvegicus [2].
`c1ccc2c(NCCCCCCCNc3c4c(nc5ccccc35)CCCC4)c3c(nc2c1)CCCC3` showed an IC50 against Cholinesterase of 38.3 nM.
As for `CN1c2ccccc2C(NCCCCCCC(=O)NCCCCCNc2c3c(nc4ccccc24)CCCC3)c2ccc(Cl)cc2S1(=O)=O` (stereo unspecified), the IC50 on Cholinesterase came out at 6.97 nM; at Acetylcholinesterase, 108 nM. For the same compound, the outcome in the series on Hippocampus was Active. For the same compound, in the series filed under Rattus norvegicus [1], the Activity amounted to 67.4%.
With `CN1c2ccccc2C(NCCCCCCC(=O)NCCCCCCCCNc2c3c(nc4cc(Cl)ccc24)CCCC3)c2ccc(Cl)cc2S1(=O)=O` (stereo unspecified), the IC50 was 456 nM at Cholinesterase and 452 nM against Acetylcholinesterase.
On the same counts, the results for `CN1c2ccccc2C(NCCCCCCC(=O)NCCCNc2c3c(nc4cc(Cl)ccc24)CCCC3)c2ccc(Cl)cc2S1(=O)=O` (stereo unspecified) are 52.4 nM and 6.79 nM.
On to `CN1c2ccccc2C(NCCCCCCC(=O)NCCCCCCNc2c3c(nc4cc(Cl)ccc24)CCCC3)c2ccc(Cl)cc2S1(=O)=O` (stereo unspecified), for which the IC50 at Cholinesterase turned out to be 32.1 nM; against Acetylcholinesterase, 39.1 nM.
As for `CN1c2ccccc2C(NCCCCCCC(=O)NCCNc2c3c(nc4ccccc24)CCCC3)c2ccc(Cl)cc2S1(=O)=O` (stereo unspecified), the half-inhibitory concentration (IC50) at Cholinesterase is 22.6 nM; at Acetylcholinesterase, 82.2 nM.
Consider `CN1c2ccccc2C(NCCCCCCC(=O)O)c2ccc(Cl)cc2S1(=O)=O` (stereo unspecified) [TIANEPTINE], for which the Activity in the series listed under Rattus norvegicus [2] stood at 109.7%; in the series filed under Rattus norvegicus [3], 110.8%.

The values above are taken from ChEMBL document CHEMBL3856224, “Novel series of tacrine-tianeptine hybrids: Synthesis, cholinesterase inhibitory activity, S100B secretion and a molecular modeling approach” (Eur J Med Chem, 2016).
